Values of other authors as cited in US7375097B2, “Increasing ATP availability by inhibition of creatine kinase (CK) leakage resulting from high-intensity exercise” (Aplodan Formulations Ltd., priority 2006, dated 2008).
Where two headings read alike, the source gives them in different places.

Legend:
[1] = system: hand-grip strength; settings: unaffected in the placebo group
[2] = system: leakage of CK in acute myocardial infarction; settings: human patients suffering from acute myocardial infarction
[3] = in vivo
[4] = system: elderly subjects
[5] = in vivo; remark: listed apart in the source
[6] = system: patients with inadequate coronary blood flow
[7] = system: skeletal muscle performance; settings: clinical trials
[8] = oral administration, test animals, up to about, at 48 hours
[9] = alkaline and acidic solutions
[10] = system: models of myocardial infarction
[11] = in vitro
[12] = system: serum CK levels increased by isoprenaline; settings: rats; CK increased by administration of isoprenaline

SMILES: CN(CCOP(=O)(O)O)C(=N)N [2-(carbamimidoyl-methyl-amino)ethoxyphosphonic acid]
- hand-grip strength [1]: hand-grip strength was improved
- leakage of CK and several other enzymes [2]: reduce the leakage of CK as well as several other enzymes
- tolerability / side effects [3]: well tolerated and without side effects
- muscular performance [4]: improved muscular performance
- cardioprotection [5]: afford cardioprotection
- cardiac parameters [6]: improve cardiac parameters
- capacity to perform physical activity [7]: increase the capacity to perform physical activity
- muscular development [7]: improve muscular development
- absorption by the intestine [8]: about 60%
- stability in solution [9]: stable in both alkaline and acidic solutions
- protection against cellular necrosis [10]: protective against cellular necrosis
- dephosphorylation to creatine ([11]; blood and muscle): less so
- dephosphorylation to creatine ([11]; kidney, intestine and liver): dephosphorylated to creatine to some degree
- serum CK levels [12]: reduce serum CK levels
